Square brackets hold non-standard residues; d marks the D form. Ends that are not written are not given here. Peptide text beside a SMILES is read from it. hSer = N[C@@H](CCO)C(=O)O
What was measured:
B. megaterium = assay: halo (inhibition zone) agar assay of bactericidal activity; type: cell-based, Bacillus megaterium; conditions: for Relative activity: ratio of the radius of the cleared halo versus that for E. coli D21: B. megaterium, overnight incubation at 25° C.
Method: (§1) The assay for antimicrobial activity was performed by pouring 10 ml of agar in TYE media containing about 10^7 viable cells of the test organisms. Wells, 2 mm in diameter, were punched in the agar plates. Aliquots of the modified cecropin-like polypeptides (2-12 ul) were then added to each well. The diameter of the inhibition zones, or haloes, around the wells, were measured after overnight incubation at 25° C.
(§2) The activities of various cecropin-like polypeptides were tested against both Gram-negative and Gram-positive organisms. Anti-microbial activity against the Gram-negative organisms remained unaltered for most of the Gram-negative bacteria (except, i.e., Serratia marcescens) as shown in Table 1. […] To determine a standard of halo formation, the various modified cecropin-like polypeptides were also applied to E. coli D21. Activity shown in Tables 1 and 2 is expressed as the ratio of the radius of the cleared halo for each organism versus that for E. coli D21.
(§3) The cecropin-like polypeptide modified at the carboxy terminus with ehtylenediamine and naturally occurring cecropin A were tested against a variety of organisms. The relative activities of the antimicrobial agents were expressed per nanomole of polypeptide applied to each well (Table 3).

S. faecalis = assay: as above; type: cell-based, Streptococcus faecalis
Method: as §1, §2, §3

B. subtilis = assay: as above; type: cell-based; conditions: Bacillus subtilus; per nanomole of polypeptide applied to well
Method: as §1, §2, §3

M. luteus = assay: as above; type: cell-based; conditions: Micrococcus luteus; per nanomole of polypeptide applied to well
Method: as §1, §2, §3

Escherichia coli = assay: halo assay, activity per nanomole; type: cell-based; conditions: per nanomole of polypeptide applied to well
Method: as §1, §3

Bacillus megaterium = conditions: from the literature; cited from earlier work

Compound | Relative activity: ratio of the radius of the cleared halo versus that for E. coli D21 (B. megaterium) | Sensitivity of Bacillus megaterium to cecropin (Bacillus megaterium) | further results
CC[C@H](C)[C@H](NC(=O)CNC(=O)[C@H](CC(=O)O)NC(=O)[C@H](CCCNC(=N)N)NC(=O)[C@@H](NC(=O)[C@H](CC(N)=O)NC(=O)[C@H](CCC(N)=O)NC(=O)CNC(=O)[C@@H](NC(=O)[C@H](CCCCN)NC(=O)[C@H](CCC(=O)O)NC(=O)[C@@H](NC(=O)[C@H](CCCCN)NC(=O)[C@H](CCCCN)NC(=O)[C@H](Cc1ccccc1)NC(=O)[C@H](CC(C)C)NC(=O)[C@H](CCCCN)NC(=O)[C@H](Cc1c[nH]c2ccccc12)NC(=O)[C@@H](N)CCCCN)[C@@H](C)CC)C(C)C)[C@@H](C)CC)C(=O)N[C@H](C(=O)N[C@@H](CCCCN)C(=O)N[C@@H](C)C(=O)NCC(=O)N1CCC[C@H]1C(=O)N[C@@H](C)C(=O)N[C@H](C(=O)N[C@@H](C)C(=O)N[C@H](C(=O)N[C@H](C(=O)NCC(=O)N[C@@H](CCC(N)=O)C(=O)N[C@@H](C)C(=O)N[C@H](C(=O)N[C@@H](CCC(N)=O)C(=O)N[C@H](C(=O)N[C@@H](C)C(=O)N[C@@H](CCCCN)C(=O)N[C@@H](CCO)C(=O)O)[C@@H](C)CC)[C@@H](C)O)C(C)C)C(C)C)C(C)C)[C@@H](C)CC [CA--HS--COOH] (H-KWKLFKKIEKVGQNIRDGIIKAGPAVAVVGQATQIAK[hSer]-OH) | 0.5 ± 0.1 |  | 
CC[C@H](C)[C@H](NC(=O)CNC(=O)[C@H](CC(=O)O)NC(=O)[C@H](CCCNC(=N)N)NC(=O)[C@@H](NC(=O)[C@H](CC(N)=O)NC(=O)[C@H](CCC(N)=O)NC(=O)CNC(=O)[C@@H](NC(=O)[C@H](CCCCN)NC(=O)[C@H](CCC(=O)O)NC(=O)[C@@H](NC(=O)[C@H](CCCCN)NC(=O)[C@H](CCCCN)NC(=O)[C@H](Cc1ccccc1)NC(=O)[C@H](CC(C)C)NC(=O)[C@H](CCCCN)NC(=O)[C@H](Cc1c[nH]c2ccccc12)NC(=O)[C@@H](N)CCCCN)[C@@H](C)CC)C(C)C)[C@@H](C)CC)C(=O)N[C@H](C(=O)N[C@@H](CCCCN)C(=O)N[C@@H](C)C(=O)NCC(=O)N1CCC[C@H]1C(=O)N[C@@H](C)C(=O)N[C@H](C(=O)N[C@@H](C)C(=O)N[C@H](C(=O)N[C@H](C(=O)NCC(=O)N[C@@H](CCC(N)=O)C(=O)N[C@@H](C)C(=O)N[C@H](C(=O)N[C@@H](CCC(N)=O)C(=O)N[C@H](C(=O)N[C@@H](C)C(=O)N[C@@H](CCCCN)C(=O)N[C@@H](CCO)C(N)=O)[C@@H](C)CC)[C@@H](C)O)C(C)C)C(C)C)C(C)C)[C@@H](C)CC [CA--HS--NH2] (H-KWKLFKKIEKVGQNIRDGIIKAGPAVAVVGQATQIAK[hSer]-NH2) | 0.4 ± 0.2 |  | Relative activity: ratio of the radius of the cleared halo versus that for E. coli D21 (S. faecalis; S. faecalis, overnight incubation at 25° C.): 0
KWKLFKKIEKVGQNIRDGIIKAGPAVAVVGQATQIAK [CA--COOH] | 0.2 ± 0.08 |  | 
KWKLFKKIEKVGQNIRDGIIKAGPAVAVVGQATQIAK-NH2 [CA--NH2, cecropin A] | 0.7 ± 0.05 | highly sensitive | Activity per Nanomole (radius of the inhibitory ring) (B. subtilis): < 0.5 millimeters; Activity per Nanomole (radius of the inhibitory ring) (M. luteus): 6.1 millimeters; Activity per Nanomole (radius of the inhibitory ring) (B. megaterium; Bacillus megaterium, per nanomole of polypeptide applied to well): 5.1 millimeters; Activity per Nanomole (radius of the inhibitory ring) (S. faecalis; Streptococcus faecalis, per nanomole of polypeptide applied to well): < 0.5 millimeters; Activity per Nanomole (radius of the inhibitory ring) (Escherichia coli): 6.1 millimeters
cecropin B (KWKVFKKIEKMGRNIRNGIVKAGPAIAVLGEAKAL; ends and bridges not checked; UniProt P01508 27-61, looked up) [natural antibacterial peptide purified from immune hemolymph] |  | highly sensitive | 
cecropin D |  | relatively resistant | 
